Data reported in PubChem BioAssay AID1963981 (Molecular Pharmacology Branch, DTP, NCI, 2024).

System: 354836-022-R-J1-PDC multicell spheroid viability
Experiment: Anticancer human tumor 354836-022-R-J1-PDC patient-derived head and neck squamous cell carcinoma cell line growth inhibition [PI3K]
Settings: for IC50: curve of first compound; for viability, T/C: stronger effect = lower value
How it was run: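 Viability of mixed-cell spheroids was determined after exposure to pairwise combinations, one partner being inavolisib, alpelisib, duvelisib or copanlisib. Highest tested concentration matched clinical Cmax where known and 10 microM where not, descending in half-log steps.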

[1] = second compound 0.0316 µM, first compound 0.0316 µM
[2] = second compound 0.0316 µM, first compound 0.1 µM
[3] = second compound 0.0316 µM, first compound 0.316 µM
[4] = second compound 0.0316 µM, first compound 1 µM
[5] = second compound 0.0316 µM, first compound 3.16 µM
[6] = second compound 0.0316 µM, first compound 10 µM
[7] = second compound 0.1 µM, first compound 0.0316 µM
[8] = second compound 0.1 µM, first compound 0.1 µM
[9] = second compound 0.1 µM, first compound 0.316 µM
[10] = second compound 0.1 µM, first compound 1 µM
[11] = second compound 0.1 µM, first compound 3.16 µM
[12] = second compound 0.1 µM, first compound 10 µM
[13] = second compound 0.316 µM, first compound 0.0316 µM
[14] = second compound 0.316 µM, first compound 0.1 µM
[15] = second compound 0.316 µM, first compound 0.316 µM
[16] = second compound 0.316 µM, first compound 1 µM
[17] = second compound 0.316 µM, first compound 3.16 µM
[18] = second compound 0.316 µM, first compound 10 µM
[19] = second compound 1 µM, first compound 0.0316 µM
[20] = second compound 1 µM, first compound 0.1 µM
[21] = second compound 1 µM, first compound 0.316 µM
[22] = second compound 1 µM, first compound 1 µM
[23] = second compound 1 µM, first compound 3.16 µM
[24] = second compound 1 µM, first compound 10 µM
[25] = second compound 3.16 µM, first compound 0.0316 µM
[26] = second compound 3.16 µM, first compound 0.1 µM
[27] = second compound 3.16 µM, first compound 0.316 µM
[28] = second compound 3.16 µM, first compound 1 µM
[29] = second compound 3.16 µM, first compound 3.16 µM
[30] = second compound 3.16 µM, first compound 10 µM
[31] = second compound 10 µM, first compound 0.0316 µM
[32] = second compound 10 µM, first compound 0.1 µM
[33] = second compound 10 µM, first compound 0.316 µM
[34] = second compound 10 µM, first compound 1 µM
[35] = second compound 10 µM, first compound 3.16 µM
[36] = second compound 10 µM, first compound 10 µM
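Further: spheroids exposed to agents for seven days before the viability read.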

`CC1(C)CCC(CN2CCN(c3ccc(C(=O)NS(=O)(=O)c4ccc(NCC5CCOCC5)c([N+](=O)[O-])c4)c(Oc4cnc5[nH]ccc5c4)c3)CC2)=C(c2ccc(Cl)cc2)C1` + Cc1nc(NC(=O)N2CCCC2C(N)=O)sc1-c1ccnc(C(C)(C)C(F)(F)F)c1 showed an IC50 (second compound 0.0316 µM) of 4.53 µM, an IC50 (second compound 0.1 µM) of 4.08 µM and an IC50 (second compound 0.316 µM) of 4.27 µM. For the same compound, the IC50 (second compound 1 µM) was 4.31 µM, the IC50 (second compound 3.16 µM) was 2.74 µM and the IC50 (second compound 10 µM) was under 0.0316 µM. It also gave a viability, T/C [1] of 99.3%, a viability, T/C [2] of 82.3% and a viability, T/C [3] of 94.3%. The viability, T/C [4] was 91.7%, the viability, T/C [5] was 70.1% and the viability, T/C [6] was 5.83%. The viability, T/C [7] was 109%, the viability, T/C [8] was 93% and the viability, T/C [9] was 97.1%. It also gave a viability, T/C [10] of 100%, a viability, T/C [11] of 63% and a viability, T/C [12] of 4.78%. It also gave a viability, T/C [13] of 99.7%, a viability, T/C [14] of 86.4% and a viability, T/C [15] of 79.5%. For the same compound, the viability, T/C [16] was 91.9%, the viability, T/C [17] was 65.4% and the viability, T/C [18] was 6.04%. It also gave a viability, T/C [19] of 83.7%, a viability, T/C [20] of 79.6% and a viability, T/C [21] of 88.4%. The viability, T/C [22] was 79.7%, the viability, T/C [23] was 67% and the viability, T/C [24] was 4.76%. For the same compound, the viability, T/C [25] was 68.3%, the viability, T/C [26] was 66.5% and the viability, T/C [27] was 72.1%. The viability, T/C [28] was 60.8%, the viability, T/C [29] was 48.8% and the viability, T/C [30] was 4.11%. It also gave a viability, T/C [31] of 38.1%, a viability, T/C [32] of 39.8% and a viability, T/C [33] of 43.8%. The viability, T/C [34] was 37.4%, the viability, T/C [35] was 34.6% and the viability, T/C [36] was 7.88%.

`C[C@@H](NC(=O)c1ncnc(N)c1Cl)c1ncc(C(=O)Nc2cc(C(F)(F)F)c(Cl)cn2)s1` + Cc1nc(NC(=O)N2CCCC2C(N)=O)sc1-c1ccnc(C(C)(C)C(F)(F)F)c1 showed an IC50 (second compound 0.0316 µM) of over 10 µM, an IC50 (second compound 0.1 µM) of over 10 µM and an IC50 (second compound 0.316 µM) of over 10 µM. It also gave an IC50 (second compound 1 µM) of over 10 µM, an IC50 (second compound 3.16 µM) of over 10 µM and an IC50 (second compound 10 µM) of under 0.0316 µM. For the same compound, the viability, T/C [1] was 103%, the viability, T/C [2] was 78.6% and the viability, T/C [3] was 95.9%. It also gave a viability, T/C [4] of 87.3%, a viability, T/C [5] of 86.6% and a viability, T/C [6] of 60.6%. It also gave a viability, T/C [7] of 94.6%, a viability, T/C [8] of 95.4% and a viability, T/C [9] of 98%. For the same compound, the viability, T/C [10] was 97.2%, the viability, T/C [11] was 96.7% and the viability, T/C [12] was 66.2%. The viability, T/C [13] was 77.7%, the viability, T/C [14] was 89.7% and the viability, T/C [15] was 86.5%. The viability, T/C [16] was 90.8%, the viability, T/C [17] was 89.6% and the viability, T/C [18] was 77.8%. The viability, T/C [19] was 65.3%, the viability, T/C [20] was 87.1% and the viability, T/C [21] was 76.4%. It also gave a viability, T/C [22] of 75.3%, a viability, T/C [23] of 78.4% and a viability, T/C [24] of 67.7%. For the same compound, the viability, T/C [25] was 53.9%, the viability, T/C [26] was 59.8% and the viability, T/C [27] was 70.1%. For the same compound, the viability, T/C [28] was 59.7%, the viability, T/C [29] was 66.5% and the viability, T/C [30] was 37.8%. For the same compound, the viability, T/C [31] was 32.1%, the viability, T/C [32] was 38.4% and the viability, T/C [33] was 37.8%. It also gave a viability, T/C [34] of 39.2%, a viability, T/C [35] of 36.1% and a viability, T/C [36] of 16.7%.

`Cn1ncnc1[C@H]1c2n[nH]c(=O)c3cc(F)cc(c23)N[C@@H]1c1ccc(F)cc1` + Cc1nc(NC(=O)N2CCCC2C(N)=O)sc1-c1ccnc(C(C)(C)C(F)(F)F)c1 gave an IC50 (second compound 0.0316 µM) of over 0.1 µM, an IC50 (second compound 0.1 µM) of over 0.1 µM and an IC50 (second compound 0.316 µM) of over 0.1 µM. The IC50 (second compound 1 µM) was over 0.1 µM, the IC50 (second compound 3.16 µM) was over 0.1 µM and the IC50 (second compound 10 µM) was under 0.000316 µM. The viability, T/C (second compound 0.0316 µM, first compound 0.000316 µM) was 115%, the viability, T/C (second compound 0.0316 µM, first compound 0.001 µM) was 90.7% and the viability, T/C (second compound 0.0316 µM, first compound 0.00316 µM) was 107%. For the same compound, the viability, T/C (second compound 0.0316 µM, first compound 0.01 µM) was 98.4%, the viability, T/C [1] was 105% and the viability, T/C [2] was 88.3%. The viability, T/C (second compound 0.1 µM, first compound 0.000316 µM) was 93.6%, the viability, T/C (second compound 0.1 µM, first compound 0.001 µM) was 88.7% and the viability, T/C (second compound 0.1 µM, first compound 0.00316 µM) was 98%. For the same compound, the viability, T/C (second compound 0.1 µM, first compound 0.01 µM) was 93%, the viability, T/C [7] was 98.5% and the viability, T/C [8] was 94%. It also gave a viability, T/C (second compound 0.316 µM, first compound 0.000316 µM) of 85%, a viability, T/C (second compound 0.316 µM, first compound 0.001 µM) of 103% and a viability, T/C (second compound 0.316 µM, first compound 0.00316 µM) of 99.5%. For the same compound, the viability, T/C (second compound 0.316 µM, first compound 0.01 µM) was 95.8%, the viability, T/C [13] was 81.4% and the viability, T/C [14] was 89.9%. For the same compound, the viability, T/C (second compound 1 µM, first compound 0.000316 µM) was 80.8%, the viability, T/C (second compound 1 µM, first compound 0.001 µM) was 85.3% and the viability, T/C (second compound 1 µM, first compound 0.00316 µM) was 83.3%. The viability, T/C (second compound 1 µM, first compound 0.01 µM) was 86.6%, the viability, T/C [19] was 85.3% and the viability, T/C [20] was 77.3%. The viability, T/C (second compound 3.16 µM, first compound 0.000316 µM) was 58.2%, the viability, T/C (second compound 3.16 µM, first compound 0.001 µM) was 70.1% and the viability, T/C (second compound 3.16 µM, first compound 0.00316 µM) was 62.8%. It also gave a viability, T/C (second compound 3.16 µM, first compound 0.01 µM) of 67.3%, a viability, T/C [25] of 59.3% and a viability, T/C [26] of 62.2%. It also gave a viability, T/C (second compound 10 µM, first compound 0.000316 µM) of 39.7%, a viability, T/C (second compound 10 µM, first compound 0.001 µM) of 38.9% and a viability, T/C (second compound 10 µM, first compound 0.00316 µM) of 43.4%. The viability, T/C (second compound 10 µM, first compound 0.01 µM) was 45.5%, the viability, T/C [31] was 31.1% and the viability, T/C [32] was 30.3%.
